{"source": "patent US20170008888A1", "about": "(KYORIN PHARMACEUTICAL CO., LTD., priority 2014, published 2017)", "key": {"[1]": {"system": "collagen-induced arthritis mouse model", "experiment": "Collagen-induced arthritis (CIA) mouse model: in-life disease score, paw thickness", "assay_type": "in vivo, mouse (DBA/1J)", "conditions": "for change in group average disease score - mean, Day versus Day 21 (start of treatment): 60 mg/kg PO BID from D21"}, "[2]": {"system": "collagen-induced arthritis mouse model", "experiment": "Collagen-induced arthritis (CIA) mouse model: histopathology of tibiofemoral and tarsal/phalangeal joints", "assay_type": "in vivo, mouse (DBA/1J)"}, "[3]": {"molecular_target": "T1, TAF1 (Homo sapiens, UniProt P21675)", "T1 construct": "made in house; host or cells: E. coli host derived from the BL21 strain (T7 phage lysate)", "T1 sequence (P21675 1519-1628 limits assumed)": "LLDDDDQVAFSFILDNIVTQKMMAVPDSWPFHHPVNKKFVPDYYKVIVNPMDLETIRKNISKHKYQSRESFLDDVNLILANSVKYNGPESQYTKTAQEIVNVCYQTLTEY", "experiment": "Bromodomain binding assay: TAF1", "experimental": "(§1) T7 phage strains displaying bromodomains were grown in parallel in 24-well blocks in an E. coli host derived from the BL21 strain. E. coli were grown to log-phase and infected with T7 phage from a frozen stock (multiplicity of infection=0.4) and incubated with shaking at 32° C. until lysis (90-150 minutes). The lysates were centrifuged (5,000×g) and filtered (0.2 μm) to remove cell debris. […] The liganded beads were blocked with excess biotin and washed with blocking buffer (SeaBlock (Pierce), 1% BSA, 0.05 Tween 20, 1 mM DTT) to remove unbound ligand and to reduce non-specific phage binding. […] Test compounds (T62 and 46) were prepared as 1000× stocks in 100% DMSO and subsequently diluted 1:10 in monoethylene glycol (MEG) to create stocks at 100× the screening concentration (resulting stock solution is 10% DMSO/90% MEG). The compounds were then diluted directly into the assays such that the final concentration of DMSO and MEG were 0.1% and 0.9%, respectively. All reactions were performed in polystyrene 96-well plates in a final volume of 0.135 ml. […] The bromodomain concentration in the eluates was measured by qPCR. Compounds were assayed for binding activity against a panel of 40 bromodomain-containing proteins."}, "[4]": {"molecular_target": "T2, TAF1L (Homo sapiens, UniProt Q8IZX4)", "T2 construct": "made in house; host or cells: E. coli host derived from the BL21 strain (T7 phage lysate)", "T2 sequence (Q8IZX4 1517-1626 limits assumed)": "as the sequence (P21675 1519-1628 limits assumed) above, with V46M, M51V, V102I, L107I counted along it", "experiment": "Bromodomain binding assay: TAF1L", "experimental": "as §1"}, "[5]": {"conditions": "Group 3 (n=10): 60 mg/kg PO BID D21-D42"}, "[6]": {"conditions": "Group 3: 60 mg/kg PO BID D21-D42"}}, "note": "Where two headings read alike, the source gives them in different places.", "data": [{"compound": "CCOc1cc(C(=O)N2CCC(N3CCCC3)CC2)ccc1Nc1cc2c(cn1)N(C)C(=O)c1ccccc1N2C", "note": "[Compound 46, 3-(2-Ethoxy-4-(4-(pyrrolidin-1-yl)piperidine-1-carbonyl)phenylamino)-5,11-dimethyl-5H-benzo[e]pyrido[3,4-b][1,4]diazepin-10(11H)-one]", "values": [{"measurement": "change in group average disease score - mean, Day versus Day 21 (start of treatment)", "setting": "[1]; Day 21", "value": 0.0}, {"measurement": "change in group average disease score - mean, Day versus Day 21 (start of treatment)", "setting": "[1]; Day 24", "value": 0.4}, {"measurement": "change in group average disease score - mean, Day versus Day 21 (start of treatment)", "setting": "[1]; Day 26", "value": 1.3}, {"measurement": "change in group average disease score - mean, Day versus Day 21 (start of treatment)", "setting": "[1]; Day 28", "value": 2.0}, {"measurement": "change in group average disease score - mean, Day versus Day 21 (start of treatment)", "setting": "[1]; Day 31", "value": 2.1}, {"measurement": "change in group average disease score - mean, Day versus Day 21 (start of treatment)", "setting": "[1]; Day 33", "value": 2.7}, {"measurement": "change in group average disease score - mean, Day versus Day 21 (start of treatment)", "setting": "[1]; Day 35", "value": 2.4}, {"measurement": "change in group average disease score - mean, Day versus Day 21 (start of treatment)", "setting": "[1]; Day 37", "value": 2.7}, {"measurement": "change in group average disease score - mean, Day versus Day 21 (start of treatment)", "setting": "[1]; Day 39", "value": 2.8}, {"measurement": "percent reduction in overall disease and total paw scores", "setting": "[1]; treatment Day 21-42, Tofacitinib 15 mg/kg BID PO, doses in Table 28", "value": "about 55%"}, {"measurement": "histopathology of hind-limb joints (knee, paw/tarsal), in words", "setting": "[2]; Day 42, H&E", "value": "nearly twice as effective as Tofacitinib at protecting the tarsal joints"}, {"measurement": "Animals with normal tarsal joints (% of total n in group)", "setting": "[2]; [5]", "value": 70, "unit": "%"}, {"measurement": "Number of animals with normal tarsal joints", "setting": "[2]; [5]", "value": 7}, {"measurement": "Tibiofemoral joint score: cartilage erosion/ulceration", "setting": "[2]; [6]", "value": 12.5}, {"measurement": "Tibiofemoral joint score: inflammation", "setting": "[2]; [6]", "value": 15.0}, {"measurement": "Tibiofemoral joint score: periosteal proliferation/erosion", "setting": "[2]; [6]", "value": 3.8}, {"measurement": "Tibiofemoral joint score: synovial hyperplasia", "setting": "[2]; [6]", "value": 3.0}]}, {"compound": "CCOc1cc(C(=O)N[C@H]2CC[C@H](O)CC2)ccc1Nc1cc2c(cn1)N(C)C(=O)c1ccccc1N2C", "note": "[Compound T62]", "values": [{"measurement": "Kd", "setting": "[3]; read-out: Kd (nM) TAF1", "value": 12000, "unit": "nM"}, {"measurement": "Kd", "setting": "[3]; read-out: Kd for binding to TAF1", "value": "> 20000", "unit": "nM"}, {"measurement": "Kd", "setting": "[4]; read-out: Kd (nM) TAF1L", "value": 19000, "unit": "nM"}, {"measurement": "Kd", "setting": "[4]; read-out: Kd for binding to TAF1L", "value": "> 20000", "unit": "nM"}]}]}
